Results: US20160106102A1, “KNOWN AND NEW HETEROCYCLIC COMPOUNDS AS PEST CONTROL AGENTS” (BAYER CROPSCIENCE AKTIENGESELLSCHAFT, priority 2013, published 2016)
Where “and” joins values, the source holds several entries; their conditions need not be identical. Equal entries are not always repeated. Where two headings read alike, the source gives them in different places.

How the values were obtained:
[1] = log P determination by LC-MS in the acidic range; format: physicochemical; conditions: for log P (acid): LC-MS in the acidic range
Text: The LC-MS determination in the acidic range is effected at pH 2.7 using 0.1% aqueous formic acid and acetonitrile (contains 0.1% formic acid) as eluents, linear gradient from 10% acetonitrile to 95% acetonitrile. Alternatively, the determination is effected in the acidic range at pH 2.3 using 0.1% aqueous phosphoric acid and acetonitrile as eluents; linear gradient from 10% acetonitrile to 95% acetonitrile.

[2] = test system: Myzus persicae; test: Myzus persicae - sachet test; format: in vivo; conditions: 100% = all animals killed; for pest or weed control at 6 ppm / pest or weed control at 30 ppm: Myzus persicae, read-out: efficacy (kill in %)
Summary of the method: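 Green peach aphids feed through a sealed sachet on nutrient medium containing the water-diluted formulation (solvents: 2% N-methylpyrrolidone, 2% diacetone alcohol). Percent mortality read after the chosen time; 100% means all animals killed.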

[3] = test system: Myzus persicae; test: Myzus persicae - spray test; format: in vivo; conditions: application rate of 500 g/ha, after 6 days, sprayed Chinese cabbage leaf discs infested by all stages, 100% = all aphids killed; for pest or weed control at 500 g/ha: Myzus persicae, foliar, 144 h, read-out: efficacy in %
Method: Myzus persicae—spray test Solvent: 78 parts by weight of acetone • • 1.5 parts by weight of dimethylformamide Emulsifier: 0.5 part by weight of alkylaryl polyglycol ether To produce an appropriate active ingredient formulation, 1 part by weight of active ingredient is mixed with the specified amounts of solvent and emulsifier, and the concentrate is diluted to the desired concentration with emulsifier-containing water. Discs of Chinese cabbage leaves (Brassica pekinensis) infested by all stages of the green peach aphid (Myzus persicae) are sprayed with an active ingredient formulation of the desired concentration. After 6 days, the efficacy in % is determined. 100% means that all the aphids have been killed; 0% means that no aphids have been killed.

[4] = pH 2.7, LC-MS in the acidic range, read-out: log P (acid)
[5] = pH 2.7, values given in the synthesis examples and NMR lists, read-out: HPLC-MS: log P
[6] = application rate of 6 ppm in nutrient medium
[7] = application rate of 30 ppm in nutrient medium

Row | SMILES | chromatographic logP [1, 4] | chromatographic logP [1, 5] | pest or weed control at 6 ppm [2, 6] | pest or weed control at 30 ppm [2, 7] | pest or weed control at 500 g/ha [3] | log P (acid) [1] | efficacy (kill in %) [2, 6] | efficacy (kill in %) [2, 7] | efficacy in % [3]
1 | Cc1cc(NC(=O)c2cccnc2)n[nH]1 [Compound I-1-17, N-(5-Methyl-1H-pyrazol-3-yl)nicotinamide] | 0.3 | 0.3 | 100% | 100% | 90% |  |  |  | 
2 | Cc1cc(NC(=O)c2cccnc2)nn1C(=O)OC(C)(C)C [Compound I-1-18, tert-Butyl 5-methyl-3-[(pyridin-3-ylcarbonyl)amino]-1H-pyrazole-1-carboxylate] | 2.04 | 2.04 | 100% | 100% | 100% |  |  |  | 
3 | C#CCn1nc(NC(=O)c2cccnc2)cc1C [Compound I-1-19] |  |  |  |  |  | 0.93 | 100% | 100% | 100%
4 | Cc1cc(NC(=O)c2cccnc2)nn1Cc1ncccc1C#N [Compound I-1-20] |  |  |  |  |  | 1.08 | 100% | 100% | 90%
5 | Cc1cc(NC(=O)c2cccnc2)nn1-c1ncccn1 [Compound I-1-23, N-[5-Methyl-1-(pyrimidin-2-yl)-1H-pyrazol-3-yl]nicotinamide] | 1.16 | 1.14 | 100% | 100% | 100% |  |  |  | 
6 | Cc1cc(N(C)C(=O)c2cccnc2)nn1-c1ncccn1 [Compound I-1-25, N-Methyl-N-[5-methyl-1-(pyrimidin-2-yl)-1H-pyrazol-3-yl]nicotinamide] | 1.02 | 1.02 | 100% | 100% | 100% |  |  |  | 
7 | O=C(Nc1ccn(Cc2ccccn2)n1)c1cccnc1 [Compound I-1-26] |  |  |  |  |  | 0.57 | 100% | 100% | 90%
8 | O=C(Nc1ccn(Cc2ccc(Cl)nc2)n1)c1cccnc1 [Compound I-1-27] |  |  |  |  |  | 1.22 | 100% | 100% | 90%
9 | Cc1cc(NC(=O)c2cccnc2)nn1C(=O)c1cccnc1 [Compound I-1-28] |  |  |  |  |  | 1.57 | 100% | 100% | 90%
10 | O=C(Nc1ccn(-c2ncccc2F)n1)c1cccnc1 [Compound I-1-30] |  |  |  |  |  | 1.15 | 100% | 100% | 90%
11 | Cc1ccnc(Cn2nc(NC(=O)c3cccnc3)cc2C)n1 [Compound I-1-31] |  |  |  |  |  | 0.96 | 100% | 100% | 90%
12 | COC(=O)C(C)(C)NC(=O)Cn1nc(NC(=O)c2cccnc2)cc1C [Compound I-1-32] |  |  |  |  |  | 0.72 | 100% | 100% | 90%
13 | Cc1cc(NC(=O)c2cccnc2)nn1CCCl [Compound I-1-33] |  |  |  |  |  | 1.16 | 100% | 100% | 100%
14 | Cc1cc(NC(=O)c2cccnc2)nn1-c1ncccc1Cl [Compound I-1-34] |  |  |  |  |  | 1.35 | 100% | 100% | 100%
15 | Cc1cc(C)nc(Cn2nc(NC(=O)c3cccnc3)cc2C)n1 [Compound I-1-36] |  |  |  |  |  | 1.2 | 100% | 100% | 90%
16 | CCn1nc(NC(=O)c2cccnc2)cc1C [Compound I-1-38] |  |  |  |  |  | 0.93 | 100% | 100% | 100%
17 | Cn1nc(NC(=O)c2cccnc2)c2cccnc21 [Compound I-1-39] |  |  |  |  |  | 0.78 | 100% | 100% | 90%
18 | C#CCn1nc(NC(=O)c2cccnc2)cc1CC [Compound I-1-40] |  |  |  |  |  | 1.31 | 100% | 100% | 90%
19 | Cc1cc(N(C(=O)c2ccc(Cl)cc2)C(=O)c2cccnc2)nn1C(=O)c1ccc(Cl)cc1 [Compound I-1-42] |  |  |  |  |  | 4.18 | 80% | 100% | 90%
20 | C#CCn1nc(NC(=O)c2cccnc2)cc1C1CC1 [Compound I-1-43] |  |  |  |  |  | 1.41 | 100% | 100% | 90%
21 | Cc1cc(NC(=O)c2cccnc2)nn1-c1ncc(C(F)(F)F)cc1Cl [Compound I-1-44] |  |  |  |  |  | 2.2 | 100% | 100% | 100%
22 | Cc1cc(NC(=O)c2cccnc2)nn1Cc1ccccc1 [Compound I-1-46] |  |  |  |  |  | 1.79 | 100% | 100% | 100% and 90%
23 | Cc1cc(NC(=O)c2cccnc2)nn1C(C)C [Compound I-1-49] |  |  |  |  |  | 1.4 | 100% | 100% | 80%
24 | Cc1cc(NC(=O)c2cccnc2)nn1Cc1ccncc1 [Compound I-1-51] |  |  |  |  |  | 0.13 | 100% | 100% | 90%
25 | O=C(Nc1ccn(-c2ccccn2)n1)c1cccnc1 [Compound I-1-52] |  |  |  |  |  | 1.32 | 100% | 100% | 90%
